# Assay: LD50 in mice, dosed intravenously
# Details: mouse, in vivo, iv
compound,measurement,value
"NC(=NCC(F)(F)F)Nc1ccnc(OCCCO)n1 [Example 1, 4-[2-(2,2,2-trifluoroethyl)guanidino]-2-(3-hydroxypropoxy)pyrimidine]",LD50,~30 mg/kg

# Source: US4451463A, “Alcohol derivatives” (Imperial Chemical Industries PLC, priority 1981, dated 1984)
